Each structure is given as a SMILES string.

In one series the test system is HL-60. Briefly: Compound was tested in vitro for its biological evaluation against HL-60 cell line. It counts as functional, Homo sapiens.
Another series concerns Mus musculus. Briefly: In vivo effect in vitamin D-replete normal NMRI mice by measuring calcium levels in serum. The series is classed as functional.
In the next series the test system is MCF7. Put plainly: Compound was tested in vitro for its biological evaluation against MCF-7 cell line. The series is classed as functional, Homo sapiens.
Series [1] has as its target T1, Vitamin D3 receptor (Sus scrofa domesticus) (UniProt Q7M3G7).
T1 sequence (whole entry): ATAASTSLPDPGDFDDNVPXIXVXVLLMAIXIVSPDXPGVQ
Put plainly: Compound was tested for its relative affinity to pig intestinal mucosa Vitamin D3 receptor using [3H]- 1 alpha,25(OH)2 D3 radioligand compared to 1 alpha 25-(OH)2D3. It counts as tissue-based.

Series [2] can be described thus: Ratio of biological evaluation of compound in keratinocytes and calcium serum was determined. value expressed as relative toxicity. The series is classed as cell-based.
In another series the test system is Keratinocyte. Briefly: Compound was tested in vitro for its biological evaluation against keratinocytes cell line. The series is classed as functional.
The next series deals with MG-63. Briefly: Compound was tested in vitro for its biological evaluation against MG-63 cell line. It counts as functional, Homo sapiens.
Series [3] in a line: Ratio of biological evaluation of compound in keratinocytes and calcium sreum was determined. value expressed as relative toxicity. The series is classed as cell-based.

Take `C=C1C(=CC=CC2CCCC([C@H](C)CC#CC(C)(C)O)C2(C)C)C[C@@H](O)C[C@@H]1O` (stereo not given in full): the Activity is listed as 85 in the series on HL-60, below 0.1 in the series with Mus musculus, 100 in the series on MCF7 and 200 with Keratinocyte. The same compound returned a Relative affinity in series [1] of 60. Besides, the Ratio in series [2] is given as 2000.

With `C=C1C(=CC=CC2CCCC([C@@H](C)CC#CC(C)(C)O)C2(C)C)C[C@@H](O)C[C@@H]1O` (stereo not given in full), the Activity with HL-60 worked out at 10; in the series with MG-63, 20; in the series on Mus musculus, 0.25; in the series with MCF7, 4; in the series with Keratinocyte it was 7. In series [1], this compound gave a Relative affinity of 0.7. In addition, the Ratio in series [3] was 28.

Regarding `C=C1/C(=C\C=C2/CCC[C@]3(C)C([C@H](C)CC#CC(C)(C)O)=CC[C@@H]23)C[C@@H](O)C[C@@H]1O` [ILX23-7553], the Activity in the series with HL-60 is given as 1000; in the series on MG-63, 1000; with Mus musculus it was 10; in the series with MCF7, 4250; with Keratinocyte, 8000. In series [1], this compound came in with a Relative affinity of 70. Moreover, the Ratio in series [3] worked out at 1300.
